Values after ≈ are worked out from the molar mass of the structure shown.
Assays:
[1] = Lipophilicity, logD of compound; type: physicochemical; settings: octanol/water
[2] = Solubility in simulated synovial fluid; type: physicochemical
[3] = Terminal half life in plasma of Sprague-Dawley rat at 250 ug, IART measured for 168 hrs by LC-MS/MS analysis; type: ADME, cell-free; settings: dose 250 µg, read-out: beta t1/2 (converted)
[4] = Inhibition of MMP3 production in human C20/A4 cells by Nano-Glo HiBit assay; settings: C20/A4, read-out: pEC50 (converted)
[5] = Free drug concentration in synovial fluid of Sprague-Dawley rat at 250 ug, IART measured for 168 hrs by LC-MS/MS analysis; type: ADME, tissue-based; settings: in vivo, other, dose 250 µg
[6] = Drug concentration in synovial fluid of Sprague-Dawley rat at 250 ug, IART measured for 168 hrs by LC-MS/MS analysis; type: ADME, tissue-based; settings: for concentration at 168 h: Sprague-Dawley, synovial fluid, 250 ug, read-out: Ct
[7] = Partition coefficient, logP of compound in octanol/water; type: physicochemical
[8] = Inhibition of IL-6 production in human SW982 cells by Nano-Glo HiBit assay; settings: SW982, read-out: pEC50 (converted)
[9] = Thermodynamic solubility in simulated synovial fluid containing PBS/BSA incubated for 20 hrs by HPLC-HRMS analysis; type: physicochemical; settings: read-out: Therm_solubility
[10] = Protein binding in bovine synovial fluid assessed as unbound fraction at 5 uM incubated for 4 hrs by rapid equilibrium dialysis; type: ADME, tissue-based, Bos taurus; settings: cattle
[11] = target: Receptor-type tyrosine-protein kinase FLT3 (Homo sapiens) (UniProt P36888); test: Inhibition of FLT3 (unknown origin) at 1 uM relative to control
[12] = target: TRAF2 and NCK-interacting protein kinase (Homo sapiens) (UniProt Q9UKE5); test: Inhibition of TNIK (unknown origin) at 1 uM relative to control
[13] = test system: Mitogen-activated protein kinase kinase kinase 7 (TAK1, Rattus norvegicus); test: In vivo inhibition of TAK1 in Lewis/Or1Rj naive rat model of joint inflammation assessed as reduction in CXCL1 level at 15 ug, IART pretreated with compound 72 hrs prior to LPS/MSU treatment measured after 4 hrs relative to control; settings: dose 15.0 µg, time 76.0 hrs
[14] = target: Mitogen-activated protein kinase kinase kinase kinase 4 (Homo sapiens) (UniProt O95819); test: Inhibition of MAP4K4 (unknown origin) at 1 uM relative to control
[15] = Drug uptake in synovial fluid of Lewis/Or1Rj naive rat model of joint inflammation administered intra-articularly pretreated with compound 72 hrs prior to LPS/MSU treatment measured after 4 hrs; type: ADME; settings: in vivo, other, 76 h, route iart, dose < 240 µg
Rattus norvegicus [16] = test: Downregulation of Cxcl1 mRNA level in meniscus of Lewis/Or1Rj naive rat model of joint inflammation administered intra-articularly pretreated with compound 72 hrs prior to LPS/MSU treatment measured after 4 hrs by qPCR analysis; type: functional, organism-based; settings: dose <= 240.0 µg, route iart, time 76.0 hrs
[17] = target: Dual specificity protein kinase CLK4 (Homo sapiens) (UniProt Q9HAZ1); test: Inhibition of CLK4 (unknown origin) at 1 uM relative to control
[18] = Unbound drug concentration in Lewis/Or1Rj naive rat model of joint inflammation at >60 ug, IART pretreated with compound 72 hrs prior to LPS/MSU treatment measured after 4 hrs; type: ADME; settings: in vivo, other, 76 h, dose > 60 µg
[19] = Drug concentration in Lewis/Or1Rj naive rat model of joint inflammation at >60 ug, IART pretreated with compound 72 hrs prior to LPS/MSU treatment measured after 4 hrs; type: ADME; settings: in vivo, dose > 60 µg, read-out: Ct
[20] = target: T1, Interleukin-1 receptor-associated kinase 4 (Homo sapiens) (UniProt Q9NWZ3); test: Inhibition of IRAK4 (unknown origin) at 1 uM relative to control
T1 sequence (whole entry): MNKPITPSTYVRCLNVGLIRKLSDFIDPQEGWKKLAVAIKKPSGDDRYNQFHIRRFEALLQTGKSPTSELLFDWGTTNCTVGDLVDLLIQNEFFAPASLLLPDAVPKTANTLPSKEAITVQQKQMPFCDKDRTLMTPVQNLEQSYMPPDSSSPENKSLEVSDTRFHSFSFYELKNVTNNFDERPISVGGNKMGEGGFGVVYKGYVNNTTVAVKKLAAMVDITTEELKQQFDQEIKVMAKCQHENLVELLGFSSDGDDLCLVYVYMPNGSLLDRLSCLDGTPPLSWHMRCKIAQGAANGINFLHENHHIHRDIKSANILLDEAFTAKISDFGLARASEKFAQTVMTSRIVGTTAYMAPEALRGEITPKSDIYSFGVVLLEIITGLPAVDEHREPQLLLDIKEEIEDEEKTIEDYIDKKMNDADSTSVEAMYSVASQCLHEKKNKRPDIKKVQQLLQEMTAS

[21] = Drug concentration in tibia of Sprague-Dawley rat assessed as accumulation in synovial membrane of tibial plateau at 250 ug, IART measured for 168 hrs by LC-MS/MS analysis; type: ADME; settings: dose 250 µg, read-out: Ct
[22] = Drug concentration in tibia of Sprague-Dawley rat assessed as accumulation in tibial plateau at 250 ug, IART measured for 168 hrs by LC-MS/MS analysis; type: ADME, tissue-based; settings: dose 250 µg, read-out: Drug uptake
[23] = target: Misshapen-like kinase 1 (Homo sapiens) (UniProt Q8N4C8); test: Inhibition of MINK1 (unknown origin) at 1 uM relative to control
Rattus norvegicus [24] = species: Rattus norvegicus; test: Effect on Mmp3 mRNA level in meniscus of Lewis/Or1Rj naive rat model of joint inflammation >=30 ug, IART pretreated with compound 72 hrs prior to LPS/MSU treatment measured after 4 hrs by qPCR analysis; type: functional, organism-based; settings: dose >= 30.0 µg, time 76.0 hrs
[25] = test system: Mitogen-activated protein kinase kinase kinase 7 (TAK1, Rattus norvegicus); test: In vivo inhibition of TAK1 in Lewis/Or1Rj naive rat model of joint inflammation assessed as reduction in CXCL1 level administered intra-articularly pretreated with compound 72 hrs prior to LPS/MSU treatment measured after 4 hrs; settings: dose <= 240.0 µg, route iart, time 76.0 hrs
Rattus norvegicus [26] = test: Downregulation of Il6 mRNA level in meniscus of Lewis/Or1Rj naive rat model of joint inflammation administered intra-articularly pretreated with compound 72 hrs prior to LPS/MSU treatment measured after 4 hrs by qPCR analysis; type: functional, organism-based; settings: dose <= 240.0 µg, route iart, time 76.0 hrs
[27] = target: Interleukin-1 receptor-associated kinase 1 (Homo sapiens) (UniProt P51617); test: Inhibition of IRAK1 (unknown origin) at 1 uM relative to control
[28] = Drug uptake in synovial fluid of Sprague-Dawley rat at 50 ug, IART measured after 72 hrs by LC-MS/MS analysis; type: ADME, tissue-based; settings: in vivo, other, dose 50 µg
[29] = Toxicity in Sprague-Dawley rat assessed as drug tolerance at 50 ug, IART measured for 168 hrs by LC-MS/MS analysis; settings: in vivo, other, dose 50 µg
[30] = Drug concentration in plasma of Sprague-Dawley rat at 50 ug, IART measured for 168 hrs by LC-MS/MS analysis; type: ADME, cell-free; settings: dose 50 µg
[31] = Drug uptake in tibia of Sprague-Dawley rat assessed as accumulation at cartilage tissue of tibial plateau at 50 ug, IART measured for 168 hrs by LC-MS/MS analysis; type: ADME, tissue-based; settings: in vivo, other, dose 50 µg
[32] = Drug uptake in tibia of Sprague-Dawley rat assessed as accumulation at synovial membrane of tibial plateau at 50 ug, IART measured for 168 hrs by LC-MS/MS analysis; type: ADME, tissue-based; settings: in vivo, other, dose 50 µg
[33] = Drug concentration in plasma of Sprague-Dawley rat at 50 ug, IART measured after 24 hrs by LC-MS/MS analysis; type: ADME, cell-free; settings: dose 50 µg

Mitogen-activated protein kinase kinase kinase kinase 4 (Homo sapiens), sequence (O95819 2-1239 limits assumed): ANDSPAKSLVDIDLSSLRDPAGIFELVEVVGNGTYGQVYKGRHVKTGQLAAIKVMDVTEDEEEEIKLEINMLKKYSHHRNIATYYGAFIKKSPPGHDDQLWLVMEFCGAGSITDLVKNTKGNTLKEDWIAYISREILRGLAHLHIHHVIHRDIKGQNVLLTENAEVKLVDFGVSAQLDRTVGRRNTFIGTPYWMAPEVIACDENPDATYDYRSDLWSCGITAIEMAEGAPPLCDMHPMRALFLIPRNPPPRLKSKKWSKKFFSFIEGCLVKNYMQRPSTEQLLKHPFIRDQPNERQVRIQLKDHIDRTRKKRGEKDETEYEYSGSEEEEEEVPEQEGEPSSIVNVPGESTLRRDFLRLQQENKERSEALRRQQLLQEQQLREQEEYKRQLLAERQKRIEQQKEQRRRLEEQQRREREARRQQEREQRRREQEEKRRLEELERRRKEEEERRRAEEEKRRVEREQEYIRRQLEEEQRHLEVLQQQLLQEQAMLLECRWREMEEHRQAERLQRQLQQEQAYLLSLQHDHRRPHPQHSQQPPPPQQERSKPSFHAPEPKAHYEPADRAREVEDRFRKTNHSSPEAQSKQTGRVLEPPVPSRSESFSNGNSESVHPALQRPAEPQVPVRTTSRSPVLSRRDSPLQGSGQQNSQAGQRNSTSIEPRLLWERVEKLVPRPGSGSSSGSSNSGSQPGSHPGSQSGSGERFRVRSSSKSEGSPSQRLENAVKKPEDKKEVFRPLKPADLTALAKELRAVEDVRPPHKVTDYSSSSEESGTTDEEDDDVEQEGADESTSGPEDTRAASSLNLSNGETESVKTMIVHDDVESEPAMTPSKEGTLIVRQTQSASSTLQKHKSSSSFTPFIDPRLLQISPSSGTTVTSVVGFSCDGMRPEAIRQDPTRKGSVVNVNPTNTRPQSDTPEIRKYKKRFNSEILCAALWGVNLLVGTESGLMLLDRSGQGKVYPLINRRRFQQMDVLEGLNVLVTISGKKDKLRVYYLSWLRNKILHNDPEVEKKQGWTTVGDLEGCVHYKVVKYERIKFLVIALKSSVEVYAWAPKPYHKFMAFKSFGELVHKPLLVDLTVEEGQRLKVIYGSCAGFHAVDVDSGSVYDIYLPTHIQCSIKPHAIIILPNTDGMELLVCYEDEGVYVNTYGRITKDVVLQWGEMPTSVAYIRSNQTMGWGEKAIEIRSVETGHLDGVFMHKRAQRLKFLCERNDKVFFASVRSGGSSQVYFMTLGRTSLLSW
TRAF2 and NCK-interacting protein kinase (Homo sapiens), sequence (Q9UKE5 whole entry, looked up): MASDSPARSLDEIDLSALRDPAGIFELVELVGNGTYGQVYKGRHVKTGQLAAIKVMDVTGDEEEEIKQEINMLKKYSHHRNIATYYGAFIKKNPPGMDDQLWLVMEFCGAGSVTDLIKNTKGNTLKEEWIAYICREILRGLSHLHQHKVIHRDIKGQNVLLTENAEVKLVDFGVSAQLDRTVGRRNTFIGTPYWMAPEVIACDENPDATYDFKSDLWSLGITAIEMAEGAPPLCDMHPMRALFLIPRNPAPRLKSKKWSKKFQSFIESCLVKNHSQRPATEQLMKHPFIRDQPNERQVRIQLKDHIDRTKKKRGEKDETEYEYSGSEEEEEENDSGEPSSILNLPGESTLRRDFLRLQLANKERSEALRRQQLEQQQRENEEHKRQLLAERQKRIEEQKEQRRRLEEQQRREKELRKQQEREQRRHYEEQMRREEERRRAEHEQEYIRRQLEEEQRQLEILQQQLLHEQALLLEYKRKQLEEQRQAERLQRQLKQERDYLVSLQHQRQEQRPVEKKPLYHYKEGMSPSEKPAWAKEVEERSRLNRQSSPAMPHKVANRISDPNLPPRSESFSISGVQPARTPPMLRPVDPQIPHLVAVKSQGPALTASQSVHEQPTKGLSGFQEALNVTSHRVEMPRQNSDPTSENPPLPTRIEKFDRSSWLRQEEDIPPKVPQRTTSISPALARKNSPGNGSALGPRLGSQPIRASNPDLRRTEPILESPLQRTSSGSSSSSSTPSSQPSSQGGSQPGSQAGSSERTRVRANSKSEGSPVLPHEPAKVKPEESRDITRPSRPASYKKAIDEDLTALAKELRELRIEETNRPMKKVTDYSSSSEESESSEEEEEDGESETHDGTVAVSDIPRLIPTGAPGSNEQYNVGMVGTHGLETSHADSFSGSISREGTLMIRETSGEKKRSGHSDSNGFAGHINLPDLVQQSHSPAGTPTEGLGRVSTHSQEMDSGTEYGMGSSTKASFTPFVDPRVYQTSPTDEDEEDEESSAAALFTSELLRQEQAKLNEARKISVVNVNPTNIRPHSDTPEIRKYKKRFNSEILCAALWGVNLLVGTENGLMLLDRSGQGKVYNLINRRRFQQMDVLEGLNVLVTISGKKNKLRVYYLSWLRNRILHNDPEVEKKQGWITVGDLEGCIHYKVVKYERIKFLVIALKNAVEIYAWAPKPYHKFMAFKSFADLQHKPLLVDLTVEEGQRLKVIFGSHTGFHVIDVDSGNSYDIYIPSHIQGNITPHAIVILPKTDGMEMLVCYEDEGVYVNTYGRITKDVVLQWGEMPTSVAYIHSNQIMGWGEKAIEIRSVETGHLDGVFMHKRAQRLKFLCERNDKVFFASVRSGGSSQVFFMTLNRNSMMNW
Receptor-type tyrosine-protein kinase FLT3 (Homo sapiens), sequence (P36888 whole entry): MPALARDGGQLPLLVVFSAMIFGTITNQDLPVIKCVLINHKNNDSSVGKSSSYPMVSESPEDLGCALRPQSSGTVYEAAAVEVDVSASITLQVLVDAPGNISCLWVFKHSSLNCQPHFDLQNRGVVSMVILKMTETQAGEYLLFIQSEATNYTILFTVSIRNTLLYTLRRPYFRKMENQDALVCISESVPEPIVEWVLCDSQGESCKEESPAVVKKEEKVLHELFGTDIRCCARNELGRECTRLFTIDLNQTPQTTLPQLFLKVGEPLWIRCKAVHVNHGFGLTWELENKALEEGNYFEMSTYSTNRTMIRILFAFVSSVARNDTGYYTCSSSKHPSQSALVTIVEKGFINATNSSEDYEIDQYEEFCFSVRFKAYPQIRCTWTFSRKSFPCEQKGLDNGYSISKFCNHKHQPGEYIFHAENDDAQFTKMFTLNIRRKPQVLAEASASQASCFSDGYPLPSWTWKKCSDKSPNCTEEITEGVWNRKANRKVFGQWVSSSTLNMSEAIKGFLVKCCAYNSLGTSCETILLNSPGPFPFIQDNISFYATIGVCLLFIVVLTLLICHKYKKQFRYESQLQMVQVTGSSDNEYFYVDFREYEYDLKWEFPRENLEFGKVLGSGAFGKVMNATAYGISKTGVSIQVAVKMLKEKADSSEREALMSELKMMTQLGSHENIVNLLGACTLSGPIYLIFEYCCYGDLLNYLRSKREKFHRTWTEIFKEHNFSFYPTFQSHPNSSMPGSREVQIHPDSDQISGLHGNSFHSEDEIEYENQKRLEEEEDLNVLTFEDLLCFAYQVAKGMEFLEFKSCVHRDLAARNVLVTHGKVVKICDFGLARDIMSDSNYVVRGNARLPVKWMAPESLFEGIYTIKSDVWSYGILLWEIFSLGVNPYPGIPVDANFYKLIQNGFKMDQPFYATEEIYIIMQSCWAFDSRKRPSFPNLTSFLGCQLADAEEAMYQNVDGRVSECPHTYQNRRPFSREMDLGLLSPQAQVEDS
Interleukin-1 receptor-associated kinase 1 (Homo sapiens), sequence (P51617 whole entry, looked up): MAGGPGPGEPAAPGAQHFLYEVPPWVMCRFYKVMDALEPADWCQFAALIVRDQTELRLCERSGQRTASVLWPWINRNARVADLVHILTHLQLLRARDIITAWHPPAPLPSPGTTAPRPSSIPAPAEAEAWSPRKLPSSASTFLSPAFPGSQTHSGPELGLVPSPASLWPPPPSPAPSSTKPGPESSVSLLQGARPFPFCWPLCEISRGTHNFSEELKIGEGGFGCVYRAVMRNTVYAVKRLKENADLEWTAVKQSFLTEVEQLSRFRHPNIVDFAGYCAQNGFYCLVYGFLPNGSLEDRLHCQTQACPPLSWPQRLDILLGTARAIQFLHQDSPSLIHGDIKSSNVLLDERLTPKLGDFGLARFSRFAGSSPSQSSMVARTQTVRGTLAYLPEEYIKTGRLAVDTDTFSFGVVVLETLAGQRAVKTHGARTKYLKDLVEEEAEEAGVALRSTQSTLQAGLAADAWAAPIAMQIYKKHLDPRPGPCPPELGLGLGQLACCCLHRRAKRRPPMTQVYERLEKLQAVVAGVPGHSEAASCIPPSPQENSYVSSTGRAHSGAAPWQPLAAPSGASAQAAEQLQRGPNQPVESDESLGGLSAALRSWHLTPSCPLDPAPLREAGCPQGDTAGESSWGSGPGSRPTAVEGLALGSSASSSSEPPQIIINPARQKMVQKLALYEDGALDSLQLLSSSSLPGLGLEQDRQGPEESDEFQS
Dual specificity protein kinase CLK4 (Homo sapiens), sequence (Q9HAZ1 whole entry, looked up): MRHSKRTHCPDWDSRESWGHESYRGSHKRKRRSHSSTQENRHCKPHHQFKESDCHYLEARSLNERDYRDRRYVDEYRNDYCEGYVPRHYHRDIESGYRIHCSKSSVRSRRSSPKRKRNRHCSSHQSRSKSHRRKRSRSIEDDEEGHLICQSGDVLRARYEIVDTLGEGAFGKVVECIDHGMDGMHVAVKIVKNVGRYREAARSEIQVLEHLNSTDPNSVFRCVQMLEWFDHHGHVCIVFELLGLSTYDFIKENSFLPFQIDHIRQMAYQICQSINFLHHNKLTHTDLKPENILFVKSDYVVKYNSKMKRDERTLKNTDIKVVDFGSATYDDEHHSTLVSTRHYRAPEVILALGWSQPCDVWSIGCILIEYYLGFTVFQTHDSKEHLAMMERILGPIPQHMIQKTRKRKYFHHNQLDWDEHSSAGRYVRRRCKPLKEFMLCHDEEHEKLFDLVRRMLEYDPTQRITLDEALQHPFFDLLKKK

Row | SMILES | half-life [3] [h] | EC50 [4] [µM] | Drug uptake(free) [5] | logP [7] | EC50 [8] [µM] | solubility thermodynamic at 20 h [9] [µM] | fraction unbound at 4 h, 5 µM [10] | concentration at 168 h [6] [nM] | further results
1 | CC(C)CC(=O)Nc1cncc(-c2ccc3[nH]nc(-c4nc5c(-c6cccc(F)c6)cncc5[nH]4)c3c2)c1 [LORECIVIVINT] | – | – | – | – | – | – | – | – | logD [1]: > 4.7; solubility [2]: 0.8 µM (≈ 0.404 µg/mL)
2 | CC(=O)Nc1ccc(-c2cc(-c3cccc(C(N)=O)n3)no2)c(O[C@H]2CC[C@@H](O)CC2)n1 | 11 | 0.501 | Below_limit_of_detection | 4 | 1 | 0.2 (≈ 0.0875 µg/mL) | – | – | Ct ([6]; in vivo, other, 168 h, dose 250 µg): Below_limit_of_detection
3 | NC(=O)c1cccc(-c2cc(-c3ccc(NCC(=O)N4CCS(=O)(=O)CC4)nc3O[C@H]3CC[C@@H](O)CC3)on2)n1 | – | 0.251 | 221 nM | 2.4 | 0.631 | 0.13 (≈ 0.0742 µg/mL) | 0.452 | 489 | –
4 | CN(C)C(=O)CNc1ccc(-c2cc(-c3cccc(C(N)=O)n3)no2)c(O[C@H]2CC[C@@H](O)CC2)n1 | 80 | 0.126 | 326 nM | 3 | 0.1 | 2 (≈ 0.961 µg/mL) | 0.27 | 1210 | –
5 | COc1ccc(-c2cc(-c3cccc(C(N)=O)n3)no2)c(O[C@H]2CC[C@@H](O)CC2)n1 | – | 0.126 | – | 4.5 | 1 | – | – | – | –
6 | CN(C)C(=O)c1ccc(-c2cc(-c3cccc(C(N)=O)c3)no2)c(O[C@H]2CC[C@@H](O)CC2)n1 | – | 0.2 | – | 2.8 | 0.251 | 12 (≈ 5.41 µg/mL) | – | – | –
7 | CN(C)C(=O)c1ccc(-c2cc(-c3cccc(C(N)=O)n3)no2)c(O[C@H]2CC[C@@H](O)CC2)n1 | – | 0.126 | – | 3 | 0.0794 | 2.9 (≈ 1.31 µg/mL) | – | – | –
8 | CNC(=O)CNc1ccc(-c2cc(-c3cccc(C(N)=O)n3)no2)c(O[C@H]2CC[C@@H](O)CC2)n1 | – | 0.0501 | – | 2.8 | 0.631 | 2.2 (≈ 1.03 µg/mL) | – | – | –
9 | CN1Cc2cc(-c3cc(-c4cccc(C(N)=O)c4)no3)c(O[C@H]3CC[C@@H](O)CC3)cc2C1=O | 93 | 0.0794 | 1550 nM | 3.3 | 0.0794 | 1.8 (≈ 0.805 µg/mL) | 0.158 | 9810 | inhibition [11]: 97%; inhibition [12]: 86%; inhibition [13]: > 90%; inhibition [14]: 100%; Drug uptake [15]: Dose-dependent-effect; Activity (Rattus norvegicus [16]): Dose-dependent-effect; inhibition [17]: 88%; Drug uptake(free) [18]: 100 nM; concentration at 76 h [19]: ≥ 1000 nM; inhibition [20]: 77%; concentration at 168 h [21]: 631000 nM; concentration at 168 h [22]: 42000 nM; inhibition [23]: 88%; Activity (Rattus norvegicus [24]): Not active; Less Profound Effect Observed; inhibition [25]: Dose-dependent-effect; Activity (Rattus norvegicus [26]): Dose-dependent-effect; inhibition [27]: 15%
10 | NC(=O)c1cccc(-c2cc(-c3ccc(N)nc3O[C@H]3CC[C@@H](O)CC3)on2)n1 | 21 | 0.0631 | 11 nM | 3.6 | 0.158 | 15 (≈ 5.93 µg/mL) | 0.088 | 120 | –
11 | CN(C)C(=O)c1ccc(-c2cc(-c3cccc(C(N)=O)c3)no2)c(O[C@H]2CC[C@@H](O)CC2)c1 | – | 0.158 | – | 2.8 | 0.126 | 10 (≈ 4.5 µg/mL) | – | – | –
12 | NC(=O)c1cccc(-c2cc(-c3cccnc3O[C@H]3CC[C@@H](O)CC3)on2)n1 | 7 | 0.158 | < 1 nM | 3.8 | 0.251 | 4.5 (≈ 1.71 µg/mL) | 0.056 | 14 | Drug uptake [28]: Active; Activity [29]: Non-toxic; concentration at 168 h [30]: < 100 nM; Drug uptake [31]: Active; Drug uptake [32]: Active; concentration at 24 h [33]: 1 nM
13 | CNc1ccc(-c2cc(-c3cccc(C(N)=O)n3)no2)c(O[C@H]2CC[C@@H](O)CC2)n1 | 168 | 0.0631 | 35 nM | > 4.7 | 0.126 | 1 (≈ 0.409 µg/mL) | 0.019 | 1840 | –

— ChEMBL document CHEMBL6083284, “Identification of TAK-756, A Potent TAK1 Inhibitor for the Treatment of Osteoarthritis through Intra-Articular Administration” (J Med Chem, 2024)
